What was measured:
Assay type in all cases: in vivo
[1] = tested on: Beet Armyworm (Spodoptera exigua, LAPHEG); experiment: Bioassay on Beet Armyworm (BAW), 128-well diet tray assay; settings: for mortality at 50 µg/cm2: 168 h, 50 μg/cm^2 on artificial diet, second instar larvae, five to seven days, 25° C., read-out: BAW % Control (or Mortality) rating
Outline: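 Artificial diet was surface-treated with 50 μg/cm^2 of compound in 90:10 acetone-water and dried; one to five second-instar larvae were placed per well, eight wells per treatment. Held at 25 °C, 14:10 light-dark, for five to seven days, then percent mortality per well was averaged.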

[2] = tested on: Cabbage Looper (Trichoplusia ni, TRIPNI); experiment: Bioassay on Cabbage Looper (CL), 128-well diet tray assay; settings: for mortality at 50 µg/cm2: 168 h, 50 μg/cm^2 on artificial diet, second instar larvae, five to seven days, 25° C., read-out: CL % Control (or Mortality) rating
Outline: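 Diet-tray assay: 1–5 second-instar larvae per well on artificial diet surface-treated with 50 μg/cm^2 compound (90:10 acetone-water, dried), eight wells per compound. Held at 25° C., 14:10 light-dark for five to seven days; percent mortality per well averaged across the eight wells.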

[3] = tested on: Yellow Fever Mosquito (Aedes aegypti, AEDSAE); settings: about 1 day-old larvae, 3 days, room temperature, scored on mortality
Method: Example C: Bioassays on Yellow Fever Mosqurro (Aedes aegypti, AEDSAE) (“YFM”)
Certain molecules disclosed in this document were tested against YFM using procedures described in the following paragraph. In the reporting of the results, the “GPA & YFM Rating Table” was used (See Table Section).
Master plates containing 400 μg of a molecule dissolved in 100 μL of dimethyl sulfoxide (DMSO) (equivalent to a 4000 ppm solution) are used. A master plate of assembled molecules contains 15 μL per well. To this plate, 135 μL of a 90:10 water:acetone mixture is added to each well. A robot (Biomek® NXP Laboratory Automation Workstation) is programmed to dispense 15 μL aspirations from the master plate into an empty 96-well shallow plate (“daughter” plate). There are 6 reps (“daughter” plates) created per master. The created daughter plates are then immediately infested with YFM larvae.
The day before plates are to be treated, mosquito eggs are placed in Millipore water containing liver powder to begin hatching (4 g. into 400 mL). After the daughter plates are created using the robot, they are infested with 220 μL of the liver powder/larval mosquito mixture (about 1 day-old larvae). After plates are infested with mosquito larvae, a non-evaporative lid is used to cover the plate to reduce drying. Plates are held at room temperature for 3 days prior to grading. After 3 days, each well is observed and scored based on mortality. The results are indicated in the table entitled “Table ABC: Biological Results” (See Table Section).

Structure (SMILES) | mortality at 50 µg/cm2 [1] | mortality at 50 µg/cm2 [2] | other results
C[C@H](CS(=O)(=O)CC(C)(F)F)NC(=O)c1ccc(/C(F)=C/C(c2cc(Cl)c(Cl)c(Cl)c2)C(F)(F)F)cc1C(F)(F)F (stereo partly drawn) [F97, N—((R)-1-((2,2-difluoropropyl)sulfonyl)propan-2-yl)-4-((Z)-1,4,4,4-tetrafluoro-3-(3,4,5-trichlorophenyl)but-1-en-1-yl)-2-(trifluoromethyl)benzamide] | 50 to 100% | 50 to 100% | –
C[C@H](CS(=O)(=O)CC(F)(F)F)NC(=O)c1ccc(/C(F)=C/C(c2cc(Cl)c(Cl)c(Cl)c2)C(F)(F)F)cc1Cl (stereo partly drawn) [F11, 2-Chloro-4-((Z)-1,4,4,4-tetrafluoro-3-(3,4,5-trichlorophenyl)but-1-en-1-yl)-N—((R)-1-((2,2,2-trifluoroethyl)sulfonyl)propan-2-yl)benzamide] | 50 to 100% | 50 to 100% | –
CCS(=O)(=O)C[C@@H](C)NC(=O)c1ccc(/C(F)=C/C(c2cc(Br)c(Cl)c(Br)c2)C(F)(F)F)cc1C(F)(F)F (stereo partly drawn) [F56, 4-((Z)-3-(3,5-Dibromo-4-chlorophenyl)-1,4,4,4-tetrafluorobut-1-en-1-yl)-N—((R)-1-(ethylsulfonyl)propan-2-yl)-2-(trifluoromethyl)benzamide] | – | – | YFM % Control (or Mortality) rating [3]: A (80-100)
CC(C)(CS(C)(=O)=O)NC(=O)c1ccc(/C(F)=C/C(c2cc(Cl)c(Cl)c(Cl)c2)C(F)(F)F)cc1C(F)(F)F (stereo not shown) [F100, (Z)—N-(2-Methyl-1-(methylsulfonyl)propan-2-yl)-4-(1,4,4,4-tetrafluoro-3-(3,4,5-trichlorophenyl)but-1-en-1-yl)-2-(trifluoromethyl)benzamide] | 50 to 100% | 50 to 100% | –
C[C@H](CS(=O)(=O)CC(F)(F)F)NC(=O)c1ccc(/C(F)=C/C(c2cc(Cl)cc(C(C)(F)F)c2)C(F)(F)F)cc1C(F)(F)F (stereo partly drawn) [F120, 4-((Z)-3-(3-Chloro-5-(1,1-difluoroethyl)phenyl)-1,4,4,4-tetrafluorobut-1-en-1-yl)-N—((R)-1-((2,2,2-trifluoroethyl)sulfonyl)propan-2-yl)-2-(trifluoromethyl)benzamide] | 50 to 100% | 50 to 100% | –
CCSC[C@@H](C)NC(=O)c1ccc(/C(F)=C/C(c2cc(Cl)c(Br)c(Cl)c2)C(F)(F)F)cc1C(F)(F)F (stereo partly shown) [F48] | 50 to 100% | 50 to 100% | –
CCS(=O)(=O)C[C@@H](C)NC(=O)c1ccc(/C(F)=C/C(c2cc(Cl)c(Br)c(Cl)c2)C(F)(F)F)cc1C(F)(F)F (stereo partly drawn) [F63, 4-((Z)-3-(4-Bromo-3,5-chlorophenyl)-1,4,4,4-tetrafluorobut-1-en-1-yl)-N—((R)-1-(ethylsulfonyl)propan-2-yl)-2-(trifluoromethyl)benzamide] | 50 to 100% | 50 to 100% | –
C[C@H](CSCC(F)(F)F)NC(=O)c1ccc(/C(F)=C/C(c2ccc(Cl)c(Cl)c2)C(F)(F)F)cc1Br (stereo partly drawn) [F58, 2-Bromo-4-((Z)-3-(3,4-dichlorophenyl)-1,4,4,4-tetrafluorobut-1-en-1-yl)-N—((R)-1-((2,2,2-trifluoroethyl)thio)propan-2-yl)benzamide] | 50 to 100% | 50 to 100% | –
C[C@H](CS(=O)(=O)CC(F)(F)F)NC(=O)c1ccc(/C(F)=C/C(c2cc(F)c(Cl)c(C(F)(F)F)c2)C(F)(F)F)cc1C(F)(F)F (stereo partly drawn) [F71, 4-((Z)-3-(4-Chloro-3-fluoro-5-(trifluoromethyl)phenyl)-1,4,4,4-tetrafluorobut-1-en-1-yl)-N—((R)-1-((2,2,2-trifluoroethyl)sulfonyl)propan-2-yl)-2-(trifluoromethyl)benzamide] | 50 to 100% | 50 to 100% | –
Cc1cc(/C(F)=C/C(c2cc(Cl)c(Cl)c(Cl)c2)C(F)(F)F)ccc1C(=O)N[C@H](C)C[S+]([O-])CC(F)(F)F (stereo partly drawn) [F5, 2-Methyl-4-((Z)-1,4,4,4-tetrafluoro-3-(3,4,5-trichlorophenyl)but-1-en-1-yl)-N-((2R)-1-((2,2,2-trifluoroethyl)sulfinyl)propan-2-yl)benzamide] | 50 to 100% | 50 to 100% | –
C[C@H](CSCC(F)(F)F)NC(=O)c1ccc(/C(F)=C/C(c2cc(Cl)c(Cl)c(Cl)c2)C(C)(F)F)cc1C(F)(F)F (stereo partly drawn) [F15, 4-((Z)-1,4,4-Trifluoro-3-(3,4,5-trichlorophenyl)pent-1-en-1-yl)-N—((R)-1-((2,2,2-trifluoroethyl)thio)propan-2-yl)-2-(trifluoromethyl)benzamide] | 50 to 100% | 50 to 100% | –
C[C@H](CS(C)(=O)=O)NC(=O)c1ccc(/C(F)=C/C(c2cc(Cl)c(Cl)c(Cl)c2)C(F)(F)F)cc1C(F)(F)F (stereo partly drawn) [F87, N—((R)-1-(methylsulfonyl)propan-2-yl)-4-((Z)-1,4,4,4-tetrafluoro-3-(3,4,5-trichlorophenyl)but-1-en-1-yl)-2-(trifluoromethyl)benzamide] | 50 to 100% | 50 to 100% | –
CSC(C)C(C)NC(=O)c1ccc(/C(F)=C/C(c2cc(Cl)c(Cl)c(Cl)c2)C(F)(F)F)cc1C(F)(F)F (stereo not shown) [F101, (Z)—N-(3-(methylthio)butan-2-yl)-4-(1,4,4,4-tetrafluoro-3-(3,4,5-trichlorophenyl)but-1-en-1-yl)-2-(trifluoromethyl)benzamide] | 50 to 100% | 50 to 100% | –
C[C@H](CS(=O)(=O)CC(F)(F)F)NC(=O)c1ccc(/C(F)=C/C(c2ccc(F)c(C(F)(F)F)c2)C(F)(F)F)cc1C(F)(F)F (stereo partly drawn) [F77, 4-((Z)-1,4,4,4-Tetrafluoro-3-(4-fluoro-3-(trifluoromethyl)phenyl)but-1-en-1-yl)-N—((R)-1-((2,2,2-trifluoroethyl)sulfonyl)propan-2-yl)-2-(trifluoromethyl)benzamide] | 50 to 100% | 50 to 100% | –
C[C@H](CSCC(F)(F)F)NC(=O)c1ccc(/C(F)=C/C(c2cc(Cl)c(Br)c(Cl)c2)C(F)(F)F)cc1C(F)(F)F (stereo partly drawn) [F24, 4-((Z)-3-(4-Bromo-3,5-dichlorophenyl)-1,4,4,4-tetrafluorobut-1-en-1-yl)-N—((R)-1-((2,2,2-trifluoroethyl)thio)propan-2-yl)-2-(trifluoromethyl)benzamide] | 50 to 100% | 50 to 100% | –
C[C@H](CS(=O)(=O)CC(F)(F)F)NC(=O)c1ccc(/C(F)=C/C(c2cc(Cl)c(Cl)c(Cl)c2)C(C)(F)F)cc1 (stereo partly drawn) [FC1, 4-((Z)-1,4,4-Trifluoro-3-(3,4,5-trichlorophenyl)pent-1-en-1-yl)-N—((R)-1-((2,2,2-trifluoroethyl)sulfonyl)propan-2-yl)benzamide] | – | – | mortality at 0.05 µg/cm2 ([1]; 0.05 μg/cm^2, read-out: BAW Percent control (or mortality)): 0%; mortality at 0.5 µg/cm2 ([1]; 0.5 μg/cm^2, read-out: BAW Percent control (or mortality)): 20%; mortality at 5 µg/cm2 ([1]; 5 μg/cm^2, read-out: BAW Percent control (or mortality)): 100%; mortality at 0.05 µg/cm2 ([2]; 0.05 μg/cm^2, read-out: CL Percent control (or mortality)): 0%; mortality at 0.5 µg/cm2 ([2]; 0.5 μg/cm^2, read-out: CL Percent control (or mortality)): 81%; mortality at 5 µg/cm2 ([2]; 5 μg/cm^2, read-out: CL Percent control (or mortality)): 100%
C[C@H](CS(=O)(=O)CC(F)(F)F)NC(=O)c1ccc(/C(F)=C/C(c2cc(F)c(F)c(F)c2)C(F)(F)F)cc1C(F)(F)F (stereo partly drawn) [F133, 4-((Z)-1,4,4,4-Tetrafluoro-3-(3,4,5-trifluorophenyl)but-1-en-1-yl)-N—((R)-1-((2,2,2-trifluoroethyl)sulfonyl)propan-2-yl)-2-(trifluoromethyl)benzamide] | 50 to 100% | 50 to 100% | –
Cc1c(C(/C=C(\F)c2ccc(C(=O)N[C@H](C)CS(=O)(=O)CC(F)(F)F)c(C(F)(F)F)c2)C(F)(F)F)ccc(Cl)c1Cl (stereo partly drawn) [F132, 4-((Z)-3-(3,4-Dichloro-2-methylphenyl)-1,4,4,4-tetrafluorobut-1-en-1-yl)-N—((R)-1-((2,2,2-trifluoroethyl)sulfonyl)propan-2-yl)-2-(trifluoromethyl)benzamide] | 50 to 100% | 50 to 100% | –
C=Cc1c(Cl)cc(C(/C=C(\F)c2ccc(C(=O)N[C@H](C)CSCC)c(C(F)(F)F)c2)C(F)(F)F)cc1Cl (stereo partly drawn) [F47, 4-((Z)-3-(3,5-Dichloro-4-vinylphenyl)-1,4,4,4-tetrafluorobut-1-en-1-yl)-N—((R)-1-(ethylthio)propan-2-yl)-2-(trifluoromethyl)benzamide] | 50 to 100% | 50 to 100% | –
CCC(F)(F)C(/C=C(\F)c1ccc(C(=O)N[C@H](C)CSCC(F)(F)F)c(C(F)(F)F)c1)c1cc(Cl)c(Cl)c(Cl)c1 (stereo partly drawn) [F39, 4-((Z)-1,4,4-Trifluoro-3-(3,4,5-trichlorophenyl)hex-1-en-1-yl)-N—((R)-1-((2,2,2-trifluoroethyl)thio)propan-2-yl)-2-(trifluoromethyl)benzamide] | 50 to 100% | 50 to 100% | –
